According to patent US20230109134A1, “PYRIDAZINONE OR PYRIDAZINE COMPOUND AND DERIVATIVE AND PHARMACEUTICAL COMPOSITION THEREOF” (Suzhou Zelgen Biopharmaceuticals Co., Ltd., priority 2019, published 2023):

Columns and labels:
[1] = Pharmacokinetic testing evaluation, Test Example 4 (rat plasma); format: in vivo, SD rats; details: for plasma exposure AUC relative to compound MGL-3196: rats, 10 mg/kg intragastric, Table 5
Experimental: (§1) Male SD rats, weighing about 220 g, were divided into 3 groups after fasting overnight, with 4 rats in each group. The first group was intragastrically administered 10 mg/kg solution of compound MGL-3196 prepared in Example 1, the second group was intragastrically administered 10 mg/kg solution of compound 2A prepared in Example 2 (The dosage is calculated by the relative content of compound MGL-3196 prepared in Example 1), and the third group was intragastrically administered 10 mg/kg solution of compound 2B prepared in Example 2 (The dosage is calculated by the relative content of compound MGL-3196 prepared in Example 1), wherein the vehicle of the solution of compound MGL-3196, compound 2A, and compound 2B is DMSO/PEG400. Blood was collected from each group at 0.5, 1.0, 2.0, 4.0, 6.0, 8.0, 12 and 24 hours after administration, and the concentration of active ingredient MGL-3196 in plasma was determined by LC/MS/MS.

[2] = test system: Diet-Induced Obesity (DIO) C57Bl/6J mouse; experiment: Diet-induced obesity (DIO) C57Bl/6J mouse model; format: in vivo; details: DIO C57Bl/6J mice, 1, 3 or 10 mg/kg intragastric, 23 consecutive days
Experimental: 6-week-old C57Bl/6J mice were given a high-fat diet for 34 weeks. Mice were intragastrically administered vehicle (2% Klucel LF, 0.1% Tween 80 in water); 1, 3 or 10 mg/kg of compound 2A, compound 2B prepared in Example 2 or compound MGL-3196 prepared in Example 1 starting from day 0 (1st day of 35 weeks) respectively, 9 mice in each group, for 23 consecutive days. In a parallel study, mice were intragastrically administered vehicle (Dulbecco's phosphate buffered saline, pH adjusted to 9.0 with 1N NaOH) or 10, 30 or 100 μg/kg triiodothyronine (T3) starting from day 0 (day 1 of week 35) respectively, 9 mice in each group, for 23 consecutive days. Body weight and food intake were monitored during the study. BMD and body composition analyses were performed on day 22. At necropsy on day 23, organ weighing was performed and cholesterol and other blood biochemical parameters of blood samples were evaluated.

[3] = Drug concentrations in liver tissue, Test Example 5; format: in vivo, ICR mice; details: mouse liver at 1 hr and 6 hr, 10 mg/kg intragastric
Experimental: ICR mice, weighing 20-30 g, were divided into 4 groups after fasting overnight, with 8 mice in each group. The first group was intragastrically administered 10 mg/kg solution of compound MGL-3196 prepared in Example 1, the second group was intragastrically administered 10 mg/kg solution of compound 2A prepared in Example 2 (The dosage is calculated by the relative content of compound MGL-3196 prepared in Example 1), the third group was intragastrically administered 10 mg/kg solution of compound 2B prepared in Example 2 (The dosage is calculated by the relative content of compound MGL-3196 prepared in Example 1) and the fourth group was intragastrically administered 10 mg/kg solution of compound 6B prepared in Example 6 (The dosage is calculated by the relative content of compound MGL-3196 prepared in Example 1), wherein the vehicle of the solution of compound MGL-3196, compound 2A, compound 2B and compound 6B is DMSO/PEG400. The livers of mice in each group were collected at 1 hr and 6 hr after administration, respectively, and the concentration of the active ingredient MGL-3196 in the liver was determined by LC/MS/MS.

[4] = Pharmacokinetic testing evaluation, Test Example 3 (rat plasma); format: in vivo, SD rats
Experimental: as §1, with “1, and” for “1,”, “6B” for “2A”, “6” for “2 (The dosage is calculated by the relative content of compound MGL-3196 prepared in Example 1), and the third group was intragastrically administered 10 mg/kg solution of compound 2B prepared in Example 2”, “MGL-3196” for “MGL-3196, compound 2A,”, “6B prepared in Example 6” for “2B”

[5] = Pharmacokinetic testing evaluation, Test Example 2 (rat plasma); format: in vivo; details: male SD rats, intragastric 10 mg/kg (calculated based on MGL-3196), DMSO/PEG400; MGL-3196 measured in plasma; n = 4, mean
Experimental: Male SD rats, weighing about 220 g, were divided into 2 groups after fasting overnight, with 4 rats in each group. The first group was intragastrically administered 10 mg/kg solution of compound MGL-3196 prepared in Example 1, and the second group was intragastrically administered 10 mg/kg solution of compound 6A prepared in Example 6 (The dosage is calculated by the relative content of compound MGL-3196 prepared in Example 1), wherein the vehicle of the solution of MGL-3196 compound and compound 6A prepared in Example 6 is DMSO/PEG400. Blood was collected from each group at 0.5, 1.0, 2.0, 4.0, 6.0, 8.0, 12 and 24 hours after administration, and the concentration of active ingredient MGL-3196 in plasma was determined by LC/MS/MS.

[6] = Pharmacokinetic testing evaluation, Test Example 1 (rat plasma); format: in vivo; details: male SD rats, intragastric 10 mg/kg (calculated based on MGL-3196), DMSO/PEG400; plasma concentration of MGL-3196; n = 4, mean
Experimental: Male SD rats, weighing about 220 g, were divided into 2 groups after fasting overnight, with 4 rats in each group. The first group was intragastrically administered 10 mg/kg solution of compound MGL-3196 prepared in Example 1, and the second group was intragastrically administered 10 mg/kg solution of compound of Example 5 of WO2009037172A1 (The dosage is calculated by the relative content of compound MGL-3196 prepared in Example 1), wherein the vehicle of the solution of compound MGL-3196 and compound of Example 5 of WO2009037172A1 is DMSO/PEG400. Blood was collected from each group at 0.5, 1.0, 2.0, 4.0, 6.0, 8.0, 12 and 24 hours after administration, and the concentration of active ingredient MGL-3196 in plasma was determined by LC/MS/MS.

[7] = male SD rats, intragastric 10 mg/kg (calculated based on MGL-3196), DMSO/PEG400, MGL-3196 measured in plasma, n = 4, mean

| plasma exposure AUC relative to compound MGL-3196 [1] [times] | drug concentration in mouse liver compared to MGL-3196 [3] | plasma exposure AUC relative to compound MGL-3196 ([4]; rats, 10 mg/kg intragastric, Table 4) [times] | T1/2 [5] [h] | Tmax [5] [h] | T1/2 [6] [h] | Tmax [6] [h] | T1/2 [1, 7] [h] | Tmax [1, 7] [h] | T1/2 [4, 7] [h] | Tmax [4, 7] [h] | Structure (SMILES) | efficacy in lowering cholesterol and liver fat [2] |
| --- | --- | --- | --- | --- | --- | --- | --- | --- | --- | --- | --- | --- |
| 2.4 | higher drug concentrations |  |  |  |  |  |  |  |  |  | CC(C)OC(=O)OC(C)n1nc(Oc2c(Cl)cc(-n3nc(C#N)c(=O)[nH]c3=O)cc2Cl)cc(C(C)C)c1=O (centres unmarked) [Compound 2A, 1-(3-(2,6-dichloro-4-(6-cyano-3,5-dioxo-4,5-dihydro-1,2,4-triazin-2(3H)-yl)phenoxy)-5-isopropyl-6-oxopyridazin-1(6H)-yl)ethyl Isopropyl Carbonate] | excellent efficacy in lowering cholesterol and liver fat |
| 1.87 | higher drug concentrations |  |  |  |  |  |  |  |  |  | CC(C)OC(=O)OC(C)Oc1nnc(Oc2c(Cl)cc(-n3nc(C#N)c(=O)[nH]c3=O)cc2Cl)cc1C(C)C (centres unmarked) [Compound 2B, 1-((6-(2,6-dichloro-4-(6-cyano-3,5-dioxo-4,5-dihydro-1,2,4-triazin-2(3H)-yl)phenoxy)-4-isopropylpyridazin-3-yl)oxy)ethyl Isopropyl Carbonate] | excellent efficacy in lowering cholesterol and liver fat |
|  | higher drug concentrations | 2.0 |  |  |  |  |  |  |  |  | CC(C)OC(=O)OCOc1nnc(Oc2c(Cl)cc(-n3nc(C#N)c(=O)[nH]c3=O)cc2Cl)cc1C(C)C [Compound 6B, ((6-(2,6-dichloro-4-(6-cyano-3,5-dioxo-4,5-dihydro-1,2,4-triazin-2(3H)-yl)phenoxy)-4-isopropylpyridazin-3-yl)oxy)methyl Isopropyl Carbonate] | excellent efficacy in lowering cholesterol and liver fat |
|  |  |  | 3.54 | 5.00 | 3.35 | 2.75 | 3.73 | 4.5 | 3.55 | 6.0 | CC(C)c1cc(Oc2c(Cl)cc(-n3nc(C#N)c(=O)[nH]c3=O)cc2Cl)n[nH]c1=O [MGL-3196, 2-(3,5-dichloro-4-((5-isopropyl-6-oxo-1,6-dihydropyridazin-3-yl)oxy)phenyl)-3,5-dioxo-2,3,4,5-tetrahydro-1,2,4-triazin-6-carbonitrile] |  |
